# Literature values in US20040170677A1, “Method of drug loading in liposomes by gradient” (priority 2002, published 2004).
# Conditions: patients receiving doses greater than 550 mg per square meter of body area
compound,measurement,value
"COc1cccc2c1C(=O)c1c(O)c3c(c(O)c1C2=O)C[C@@](O)(C(=O)CO)C[C@@H]3O[C@H]1C[C@H](N)[C@H](O)[C@H](C)O1 [doxorubicin, Doxorubicin]","irreversible cardiomyopathy leading to congestive heart failure, share of patients",1-10%
